{"source": "patent US9642865B2", "about": "“Angiogenesis inhibitors” (THE JOHNS HOPKINS UNIVERSITY, priority 2004, dated 2017)", "key": {"[1]": {"system": "human umbilical vein endothelial cells (HUVEC)", "assay": "HUVEC proliferation, [3H]-thymidine incorporation", "type": "cell-based", "conditions": "guanine 10 μM and 20 μM", "experimental": "(§1) 32,000 FDA drug approvals obtained by Freedom of Information Act requests were condensed to 3,400 unique drug formulations. Drugs were purchased from Sigma, Spectrum Chemicals, MP Biomedicals, The Johns Hopkins Hospital pharmacy, Biomol, and Tocris. 10 mM stock solutions were made using DMSO, water, or ethanol as solvents. Drugs were arrayed in 96-well plates and screened at a final concentration of 10 μM. Cells were incubated with drug for 36 h and proliferation was measured by pulsing with 1 μCi [^3H]-thymidine for 8 h followed by absorption onto glass filters and scintillation counting.\n(§2) IC50 measurements were carried out in triplicate, and analyzed using four parameter logarithmic analysis. Values are presented+/−the standard error of the mean. P-values were calculated using the Student's T-test.\nA library of 1,850 FDA-approved drugs and 600 drugs that entered the clinic via approval in a foreign country or phase II clinical trials was created. To discover new angiogenesis inhibitors among known drugs, the library was screened for inhibition of human umbilical vein endothelial cells (HUVEC) using [^3H]-thymidine incorporation. […] After eliminating known cytotoxic drugs such as taxol and colchicine or drugs that are restricted to topical use, several drugs remained. […]"}, "Jurkat T cells": {"system": "Jurkat T cells", "assay": "Jurkat T-cell proliferation, [3H]-thymidine incorporation", "type": "cell-based", "experimental": "as §1, §2\nMPA is an immunosuppressive drug widely used to prevent rejection of transplanted organs (Lipsky, J. J. (1996) Lancet 348, 1357-1359). The mechanism of action in the immune system is well established-MPA inhibits de novo biosynthesis of purines in T and B lymphocytes (Allison, A. C. & Eugui, E. M. (2000) Immunopharmacology 47, 85-118). […] Thus, a comparison of HUVEC to Jurkat T cells for sensitivity to MPA in the presence and absence of guanine was carried out. […] Addition of guanine at or above 20 μM rendered Jurkat T cells resistant to MPA. […]"}, "HUVEC": {"system": "HUVEC", "assay": "Cell cycle analysis of HUVEC", "type": "cell-based, human", "conditions": "1 μM MPA + 50 μM guanosine", "excerpt": "It has been shown that MPA causes cell cycle arrest in activated T and B lymphocytes at G1 (Laliberte, J., Yee, A., Xiong, Y. & Mitchell, B. S. (1998) Blood 91, 2896-2904). Therefore, the effect of MPA on endothelial cell cycle progression was examined."}}}
{"compound": "COc1c(C)c2c(c(O)c1C/C=C(\\C)CCC(=O)O)C(=O)OC2", "note": "[MPA, 6-(4-hydroxy-6-methoxy-7-methyl-3-oxo-1,3-dihydroisobenzofuran-5-yl)-4-methyl-hex-4-enoic acid]", "values": [{"measurement": "effect of exogenous guanine on MPA inhibition of HUVEC proliferation", "setting": "[1]", "result": "partially reversed"}, {"measurement": "effect of exogenous guanine on MPA inhibition of Jurkat T-cell proliferation", "setting": "Jurkat T cells; guanine 10 μM", "result": "unaffected"}, {"measurement": "effect of exogenous guanine on MPA inhibition of Jurkat T-cell proliferation", "setting": "Jurkat T cells; guanine 20 μM and 50 μM", "result": "completely reversed"}, {"measurement": "effect of guanosine on the cell cycle effect of MPA", "setting": "HUVEC", "result": "completely reversed"}]}
